According to patent US4163799A, “Psychostimulant compounds” (Union Chimique Continentale U.C.C., priority 1975, dated 1979):
Where a name gives a salt, the structure may show the parent alone.

Legend:
[1] = test system: monoaminoxidase; test: Inhibitory effect of monoaminoxidase (tryptamine test); assay type: in vivo, rat (male, Wistar AF); details: 16 and 64 mg/kg orally; tryptamine 3 mg/kg IV
Protocol: (§1) All the experiments described below were carried out on male rats weighing between 170 and 220 g (Wistar AF strain) and male mice weighing between 18 and 23 g (Swiss NMRI strain), unless indicated to the contrary. All the experiments were conducted in a constant-temperature laboratory (22±1° C.). […] Unless indicated to the contrary 10 animals per batch were always used.

[2] = Potentialization of apomorphine; assay type: in vivo; details: compared with caffeine; no method described
[3] = Modification of hypnotic effects (pentobarbital), mouse; assay type: in vivo, mouse (male, Swiss NMRI); details: 16, 32, 64 mg/kg orally, with or 60 minutes before pentobarbital
Protocol: as §1

[4] = Antireserpine activity test, rat; assay type: in vivo, rat (male, Wistar AF); details: 8, 16, 32 mg/kg orally, reserpine 2.5 mg/kg IP 4 hours before
Protocol: as §1

[5] = Antihypnotic effect / pentobarbital antagonism (conclusion); assay type: in vivo
[6] = Hot plate test with the mouse; assay type: in vivo, mouse (male, Swiss NMRI)
Protocol: as §1
This test was used to measure the reaction time of the animals to a painful stimulus. Ten animals were used per point. Fifteen minutes after oral administration of NaAHDH (32 mg/kg) the reaction time (licking of front paws) of the mice exposed to the hot plate was 5.8 seconds while that of the controls was 7.3 seconds (significant difference at the 0.05 threshold).

[7] = Interaction with convulsants: cardiazol; assay type: in vivo; details: 64 mg/kg orally 30 minutes before cardiazol 160 mg/kg SC
Protocol: as §1

**Q.** Which “potentialization of effects of infra-convulsant dose of tryptamine” value [1] does the source give for `CC(O)CC(c1ccccc1)C(C(=O)O)c1ccccc1` (stereo not drawn) [NaAHDH, Sodium Salt of 5-Hydroxy-2,3-Diphenyl-Hexanoic Acid] here?
**A.** The value was “no potentialization of the effects of an infra-convulsant dose of tryptamine”.

**Q.** What about the potentialization of apomorphine [2] of the same compound?
**A.** The potentialization of apomorphine was “does not potentialize apomorphine”.

**Q.** What about the “time taken to fall asleep or length of sleep” value [3] of the same compound?
**A.** The value was “no modification to the time taken to fall asleep or the length of sleep”.

**Q.** What about the “modification of hyperthermia or drooping eyelid induced by reserpine” value [4] of the same compound?
**A.** Its value is “no modification of hyperthermia or drooping eyelid induced by reserpine”.

**Q.** What about the pentobarbital antagonism ([5]; at clearly stimulating doses) of the same compound?
**A.** Its pentobarbital antagonism is “no pentobarbital antagonism”.

**Q.** And the antihypnotic effect ([5]; compared with caffeine)?
**A.** Its antihypnotic effect is “no antihypnotic effect”.

**Q.** And the “effects of an analgesic dose of morphine on hot plate test” value ([6]; 32 mg/kg, with morphine)?
**A.** The value was “did not increase or decrease the effects of an analgesic dose of morphine”.

**Q.** And the “reaction time (licking of front paws)” value ([6]; 15 min after 32 mg/kg orally, controls 7.3 seconds, significant at 0.05)?
**A.** Its value is 5.8 s.

**Q.** What about the latency of convulsions [7] of the same compound?
**A.** The latency of convulsions was “no decrease in the latency of convulsions”.
